Reference: publication PMC9455983 (International Journal of Molecular Sciences, 2022)
pKi: −log10 of the molar value. Where two headings read alike, the source gives them in different places.

Experiments:
[1] = target: T1, delta-opioid receptor (DOR) (Rattus norvegicus, UniProt P33533); assay: DOR radioligand competition binding assay ([3H]-DPDPE); conditions: Delta screening results
T1 construct: Rat cortices were homogenized using 50 mM Tris, pH 7.4, 10 mM MgCl2-6H2O, 200 µM PMSF; from tissue; host or cells: rat cortex membranes
Method: DOR binding assay: Rat cortices were homogenized using 50 mM Tris, pH 7.4, 10 mM MgCl2-6H2O, 200 µM PMSF, centrifuged and incubated as above. Each assay tube contained 2 nM [^3H]-DPDPE. Assay tubes were incubated for 2.5 h at 25 °C. Unlabeled DPDPE was used as a competitor to generate a standard curve and determine nonspecific binding.
(§1) All three binding assays were terminated by filtration through GF/B filters, soaked in 5 mg/mL bovine serum albumin, 50 mM Tris, pH 7.4, on a Tomtec Mach II Harvester 96. The filters were subsequently washed with 6 mL of assay buffer. Bound radioactivity was counted on a Wallac Betaplate Liquid Scintillation Counter. Experiments were conducted using two replicates and repeated twice. Values in Scheme 2 represent the mean ± SD of two experiments with two replicates in each test.

[2] = target: T2, kappa-opioid receptor (KOR) (Cavia porcellus, UniProt P41144); assay: KOR radioligand competition binding assay ([3H]U69,593); design: species or system guinea pig; conditions: Kappa screening results
T2 construct: Guinea pig cortices and cerebella were homogenized using 50 mM Tris, pH 7.4; from tissue; host or cells: guinea pig cortex and cerebellum membranes
Method: KOR binding assay: Guinea pig cortices and cerebella were homogenized using 50 mM Tris, pH 7.4, 10 mM MgCl2-6H2O, […] centrifuged and incubated as above. Each assay tube contained 2 nM [^3H]U69,593. Assay tubes were incubated for 2 h at 25 °C. Unlabeled U50,488 was used as a competitor to generate a standard curve and determine nonspecific binding.
as §1

[3] = target: T3, mu-opioid receptor (MOR) (Rattus norvegicus, UniProt P33535); assay: MOR radioligand competition binding assay ([3H]-DAMGO); conditions: Mu screening results
T3 construct: Rat cortices were homogenized using 50 mM Tris, pH 7.4, and centrifuged at 16,500 rpm for 10 min; from tissue; host or cells: rat cortex membranes
Method: MOR binding assay: Rat cortices were homogenized using 50 mM Tris, pH 7.4, and centrifuged at 16,500 rpm for 10 min. The pellets were resuspended in fresh buffer and incubated at 37 °C for 30 min. Following incubation, the suspensions were centrifuged as before, the resulting pellets were resuspended in 100 volumes of 50 mM Tris, pH 7.4 plus 2 mg/mL bovine serum and the suspensions combined. Each assay tube contained 0.5 mL of membrane suspension, 2 nM [^3H]-DAMGO, and 0.02 mg/mL mixture in a total volume of 0.65 mL [13, 45, 53, 55].
as §1

[4] = first Ki column, unit not printed (apparently M), read-out: Ki (first column)
[5] = mean of both Ki, unit inferred, read-out: MEAN (Ki)
[6] = mean of two experiments, read-out: Ki
[7] = second Ki column, unit not printed (apparently M), read-out: Ki (second column)
[8] = experiment 1, unit inferred, read-out: Ki (Exp 1)
[9] = experiment 2, unit inferred, read-out: Ki (Exp 2)
[10] = mean of Exp 1 and Exp 2, unit inferred, read-out: MEAN (Ki)

SMILES | pKi [1, 4] | pKi [1, 5] | pKi [1, 6] | pKi [1, 7] | pKi [2, 8] | pKi [2, 9] | pKi [2, 10] | pKi [2, 6] | pKi [3, 8] | pKi [3, 9] | pKi [3, 10] | pKi [3, 6]
CC(C)C[C@H]1CN([C@@H](CC(C)C)CN2C(=N)NC[C@@H]2C)C(=N)N1 [1968-43] | 5.03 | 5.10 | 5.10 | 5.17 | 4.44 | 4.28 | 4.35 | 4.35 | 5.11 | 4.97 | 5.03 | 5.03
Cc1cc(O)cc(C)c1C[C@H]1CNC(=N)N1C[C@H](Cc1c(C)cc(O)cc1C)N1C[C@H](Cc2ccccc2)NC1=N [1968-61] | 5.97 | 5.99 | 5.99 | 6.01 | 6.06 | 5.91 | 5.98 | 5.98 | 7.39 | 7.25 | 7.32 | 7.32
Cc1cc(O)cc(C)c1C[C@@H](CN1C(=N)NC[C@@H]1Cc1ccccc1)N1C[C@H](CC(C)C)NC1=N [1968-15] | 5.97 | 5.90 | 5.90 | 5.84 | 6.25 | 6.30 | 6.27 | 6.27 | 6.46 | 6.59 | 6.52 | 6.52
Cc1cc(O)cc(C)c1C[C@H]1CNC(=N)N1C[C@H](CC(C)C)N1C[C@H](CC(C)C)NC1=N [1968-59] | 5.42 | 5.38 | 5.38 | 5.34 | 6.65 | 6.50 | 6.57 | 6.57 | 6.78 | 6.81 | 6.79 | 6.79
CC(C)C[C@H]1CN([C@@H](Cc2ccc(O)cc2)CN2C(=N)NC[C@@H]2Cc2ccccc2)C(=N)N1 [1968-66] | 4.74 | – | – | – | 5.58 | 5.48 | 5.52 | 5.52 | 5.69 | 5.70 | 5.69 | 5.70
CC(C)C[C@@H](CN1C(=N)NC[C@@H]1C)N1C[C@H](Cc2ccc(O)cc2)NC1=N [1968-42] | 4.69 | 4.25 | 4.25 | 4.04 | 4.91 | 4.91 | 4.91 | 4.91 | 5.67 | 5.61 | 5.64 | 5.64
Cc1cc(O)cc(C)c1C[C@@H](CN1C(=N)NC[C@@H]1Cc1ccc(O)cc1)N1C[C@H](CC(C)C)NC1=N [1968-31] | 5.66 | 5.71 | 5.71 | 5.77 | 5.59 | 5.68 | 5.63 | 5.63 | 6.53 | 6.53 | 6.53 | 6.53
Cc1cc(O)cc(C)c1C[C@H]1CN([C@@H](CC(C)C)CN2C(=N)NC[C@@H]2Cc2ccc(O)cc2)C(=N)N1 [1968-28] | 5.32 | 5.29 | 5.30 | 5.27 | 6.08 | 5.85 | 5.95 | 5.95 | 6.93 | 6.92 | 6.93 | 6.93
CC(C)C[C@H]1CN([C@@H](Cc2ccc(O)cc2)CN2C(=N)NC[C@@H]2Cc2ccc(O)cc2)C(=N)N1 [1968-23] | – | – | – | – | 5.02 | 5.13 | 5.07 | 5.07 | 5.63 | 5.64 | 5.64 | 5.64
CC(C)C[C@H]1CN([C@@H](Cc2ccccc2)CN2C(=N)NC[C@@H]2C)C(=N)N1 [1968-35] | – | – | – | – | 4.47 | 4.28 | 4.36 | 4.36 | 5.35 | 5.34 | 5.35 | 5.35
CC(C)C[C@H]1CN([C@@H](CC(C)C)CN2C(=N)NC[C@@H]2Cc2ccc(O)cc2)C(=N)N1 [1968-27] | – | – | – | – | 5.37 | 5.32 | 5.34 | 5.34 | 6.02 | 6.00 | 6.01 | 6.01
